Experimental data as given in patent US11542264B2, “Heteroaromatic NMDA receptor modulators and uses thereof” (Cadent Therapeutics, Inc., priority 2018, dated 2023).
≈ marks a conversion by molar mass, not a printed value.

Tests used:
[1] = Aqueous solubility, shake-flask method; format: physicochemical; conditions: phosphate buffer saline, pH 7.4, shake-flask, HPLC-UV; for solubility: pH 7.4, aqueous buffer, kinetic from dmso stock
Procedure: The aqueous solubility of the test compound was determined in phosphate buffer saline, pH 7.4, measured by shake-flask method. In this assay, DMSO stock solution of test compound was added to buffer followed by equilibration (shaking), filtration, and determination of soluble amount by HPLC-UV. […] Other imidazopyrazinone comparators from WO 2017/100591 are provided for reference. All comparator analogs are active and potency data is available in WO 2017/100591. This improvement is advantageous because improved aqueous solubility, in one aspect, is anticipated to provide enhanced in vivo performance in humans.

NMDA receptor = conditions: Table 49 of WO 2017/100591; cited from earlier work
[2] = system: impairment of MMN by MK-801; experiment: Mismatch negativity (MMN) efficacy model; conditions: rat, MK-801 0.2 mg/kg, IP
Procedure: Rats implanted with frontal EEG electrodes were presented with different audio stimuli comprising an auditory oddball “flip-flop” protocol. Briefly, 1,000 standard tones of 6.0 kHz were delivered at 90% probability, and 100 deviant tones of 8.0 kHz were delivered at 10% probability in pseudo-random order (the flip sequence), and then this sequence was then repeated with the 8 kHz tone as the standard, and the 6 kHz tone as the deviant (the flop sequence). MMN is calculated as a difference potential obtained by subtracting the averaged 8 kHz standard tone response (flop) from the averaged 8 kHz deviance tone response (flip) at each 1 ms time point over the EEG recording epochs from 50 ms prior to 150 ms after the onset of these 50 ms auditory tones.
Test sessions were comprised of three 20-minute flip-flop blocks.

[3] = system: PCP-induced cognitive impairment; experiment: Rat Novel Object Recognition (NOR) test, PCP-induced cognitive impairment; conditions: PCP 5 mg/kg intraperitoneal twice daily for 7 days, 14-day washout
Procedure: Rats were treated twice daily for 7 days with either saline vehicle (control group) or PCP (5 mg/kg, intraperitoneal). Following a 14-day washout period of no treatment, rats were tested in the NOR paradigm. Briefly, testing involves two sessions (T1 and T2), each lasting 3 minutes, 1 hour apart. […] In T1, rats are placed in a test arena with two identical objects and allowed to freely explore while their time spent exploring each object is recorded. In T2, rats are returned to the test arena where one of the objects remains the same and the other has been replaced with a novel object. The time spent exploring the novel object versus the time spent exploring the familiar object are recorded and compared to T1 object exploration times.

Compound	solubility [1] [µM]	also measured
Cc1nc(-c2ccc(F)c(C(F)(F)F)c2)c2c(=O)n(CC(=O)N3CCC(F)C3)ccn12 (stereo not drawn) [Example 427]	7 (≈ 3.08 µg/mL)	–
Cc1nc(-c2ccc(Cl)c(Cl)c2)c2c(=O)n(CC(=O)N3CCC(F)C3)ccn12 (stereo not drawn) [Example 429]	26 (≈ 11 µg/mL)	–
Cc1nc(-c2ccc(F)c(Cl)c2)c2c(=O)n(CC(=O)N3CC(C)(F)C3)ccn12 [Example 430]	–	Aqueous solubility [1]: 43 µM
O=C(Cn1ccn2c(C3CC3)nc(-c3ccc(Cl)c(Cl)c3)c2c1=O)N1CCC(F)C1 (stereo not drawn) [Example 433]	30 (≈ 13.5 µg/mL)	–
CC1(F)CN(C(=O)Cn2ccn3c(C4CC4)nc(-c4ccc(Cl)c(Cl)c4)c3c2=O)C1 [Example 435]	14 (≈ 6.29 µg/mL)	–
CC1(F)CN(C(=O)Cn2ccn3c(C4CC4)nc(-c4ccc(F)c(Cl)c4)c3c2=O)C1 [Example 436]	3 (≈ 1.3 µg/mL)	% response recovered with Ro 25-6981 and DCKA (NMDA receptor): 100%
CC1(F)CN(C(=O)Cn2ccn3c(C4CC4)nc(-c4cnc(Cl)c(Cl)c4)c3c2=O)C1 [Example 437]	7 (≈ 3.15 µg/mL)	–
CC1(F)CN(C(=O)Cn2ccn3c(C4CC4)nc(-c4ccc(F)c(C(F)(F)F)c4)c3c2=O)C1 [Example 438]	2 (≈ 0.933 µg/mL)	–
Cc1cc(-c2nc(C3CC3)n3ccn(CC(=O)N4CC(C)(F)C4)c(=O)c23)ccc1Cl [Example 443]	91 (≈ 39 µg/mL)	–
CC1(F)CN(C(=O)Cn2ccn3cnc(-c4ccc(F)c(Cl)c4)c3c2=O)C1 [Example 445]	14 (≈ 5.5 µg/mL)	–
CC1(F)CN(C(=O)Cn2ccn3cnc(-c4ccc(F)c(C(F)(F)F)c4)c3c2=O)C1 [Example 446]	9 (≈ 3.84 µg/mL)	–
CC1(F)CN(C(=O)Cn2ccn3cnc(-c4ccc(Cl)c(Cl)c4)c3c2=O)C1 [Example 447]	69 (≈ 28.2 µg/mL)	–
C[C@]12N[C@H](Cc3ccccc31)c1ccccc12 [MK-801]	–	MMN after vehicle plus MK-801 compared to vehicle plus saline [2]: significantly impaired MMN
c1ccc(C2(N3CCCCC3)CCCCC2)cc1 [PCP, phencyclidine]	–	time spent exploring the novel object compared to saline control [3]: significant reduction in time spent exploring the novel object
